From publication PMC7226613, “Antikinetoplastid Activity of Indolocarbazoles from Streptomyces sanyensis” (Biomolecules, 2020)
Like-named read-outs stand apart in the source and are kept apart here.

What was measured:
[1] = Cytotoxicity assay (AlamarBlue); settings: mouse
Method: (§3) After 24 h, cell viability was determined using AlamarBlue® method [24]. Miltefosine (Cayman Chemicals, Vitro SA, Madrid, Spain) and benznidazole (Sigma-Aldrich, Madrid, Spain) were used as reference drugs.
(§4) All experiments were performed three times, in duplicates for each concentration tested, and the mean values were also calculated. A Tukey test was used for analysis of the data.

[2] = test system: epimastigote of T. cruzi (Y strain); assay: Trypanocidal capacity assay, epimastigotes (AlamarBlue); settings: 72 h; for IC50: Trypanosoma cruzi, read-out: T. cruzi IC50; for T. cruzi IC50: epimastigotes, mean ± SD
Method: Epimastigotes were cultured in Liver Infusion Tryptose (LIT) medium supplemented with 10% FBS at 26 °C and were grown to the log phase for use in further experiments.
The assay was carried out in vitro against epimastigote stage of T. cruzi. […] Benznidazole (Sigma-Aldrich, Madrid, Spain) was used as a reference drug.
as §4

[3] = test system: macrophage J774A.1 cell line; assay: Cytotoxicity assay (AlamarBlue); settings: 24 h, AlamarBlue, mean ± SD
Method: as §3, §4

[4] = test system: promastigotes of L. amazonensis (MHOM/BR/77/LTB0016); assay: Leishmanicidal capacity assay, promastigotes (AlamarBlue); format: cell-based, Leishmania amazonensis; settings: for IC50 / L. amazonensis IC50: promastigotes, 72 h, mean ± SD
[5] = test system: promastigotes of L. donovani (MHOM/IN/90/GE1F8R); assay: as above; format: cell-based, Leishmania donovani; settings: 72 h, mean ± SD; for IC50: Leishmania donovani
[6] = test system: L. amazonensis promastigotes; assay: Mitochondrial membrane potential (JC-1); format: cell-based, Leishmania amazonensis; settings: IC90 (8.36 µM), 24 h
Method: (§1) The decrease in the mitochondrial membrane potential was detected using a JC-1 Mitochondrial Membrane, Potential Assay Kit, Cayman Chemical. […] The pellet was resuspended in JC-1 buffer. After that, 100 µL of each treated culture was added to a black 96-well plate (PerkinElmer) and 10 µL of JC-1 was added, and the plate was incubated for half an hour at 26 °C. Green and red fluorescence intensity was measured using an Enspire microplate reader (PerkinElmer, Massachusetts, USA) for 30 min. In addition, the depolarization of the mitochondrial membrane potential was confirmed by microscopic observation using EVOS FL Cell Imaging System AMF4300, Life Technologies, USA.

[7] = test system: L. donovani promastigotes; assay: Mitochondrial membrane potential (JC-1); format: cell-based, Leishmania donovani; settings: IC90, 24 h
Method: as §1

T. cruzi epimastigotes = assay: Mitochondrial membrane potential (JC-1); format: cell-based, Trypanosoma cruzi; settings: IC90, 24 h
Method: as §1

L. amazonensis = assay: Plasma membrane permeability (SYTOX Green); format: cell-based, Leishmania amazonensis; settings: IC90, 24 h
Method: (§2) The SYTOX® Green assay was performed to detect the membrane permeability alterations in parasites. […] SYTOX® Green was added at a final concentration of 1 μM (Molecular Probes).

L. donovani = assay: Plasma membrane permeability (SYTOX Green); format: cell-based, Leishmania donovani; settings: IC90, 24 h
Method: as §2

T. cruzi = assay: Plasma membrane permeability (SYTOX Green); format: cell-based, Trypanosoma cruzi; settings: IC90, 24 h
Method: as §2

[8] = test system: promastigotes of L. donovani; assay: Microscopic morphology of treated promastigotes; format: cell-based, Leishmania donovani; settings: 10 µM; flagellar pocket increased, invagination of plasma membrane
[9] = test system: L. amazonensis amastigotes; assay: Anti-amastigote activity, intra-macrophage stage in J774A.1; settings: for Selectivity Index (CC50/IC50): CC50 J774A.1 / IC50 L. amazonensis amastigotes; for IC50: Leishmania amazonensis, J774.A1, read-out: L. Amazonensis Amastigotes IC50
Method: The anti-amastigote activity was measured according to Jain et al. [26]. […] After one hour of incubation, 100 µL of stationary phase promastigotes of 7-day-old culture was added in a 10:1 ratio (2 × 10^6/mL) and the plates were re-incubated at 37 °C for 24 h to achieve a maximum infection. […] Separately, and in a 96-deep well plate, a serial dilution of the selected compounds was made with the same medium and then 50 μL of each dilution was added to each well. The plates were incubated at 37 °C, 5% CO2 for 24 h. After this incubation, we removed the medium from each well and 30 μL of Schneider medium containing 0.05% SDS was added to each well. The plate was shacked for 30 s and 170 μL of Schneider medium were added to each well. AlamarBlue® at 10% was added into each well and incubated at 26 °C for 72 h. […] Miltefosine (Cayman Chemicals, Vitro SA, Madrid, Spain) was used as reference drug.
as §4

protein kinase C (PKC) = settings: cited from earlier work
phosphorylase kinase = settings: cited from earlier work
protein kinase A (PKA) = settings: cited from earlier work
[10] = test system: macrophage J774A.1 cell line
Method: as §3, §4

in vitro = settings: mouse
Method: as §3, §4

O=C(Cn1ccnc1[N+](=O)[O-])NCc1ccccc1 [Benznidazole]
CC50 at 24 h ([1]; J774A.1 macrophage cell line): 400 ± 4 µM | IC50 [2]: 6.94 ± 1.94 µM

CN[C@@H]1C[C@H]2O[C@@](C)([C@@H]1OC)n1c3ccccc3c3c4c(c5c6ccccc6n2c5c31)C(=O)NC4 [Compound 1, staurosporine]
CC50 ([3]; read-out: Macrophage J774A.1 CC50): 8.74 ± 0.72 µM | IC50 [2]: 3.63 ± 0.77 µM

CN[C@@H]1C[C@H]2O[C@@](C)([C@@H]1OC)n1c3ccccc3c3c4c(c5c6ccccc6n2c5c31)C(=O)NC4=O [Compound 2, 7-oxostaurosporine]
IC50 ([4]; Leishmania amazonensis): 3.58 ± 1.1 µM | IC90 ([4]; Leishmania amazonensis, read-out: IC90 concentration, L. amazonensis promastigotes): 8.36 µM | IC50 [5]: 0.56 ± 0.06 µM | effect on mitochondrial membrane potential (ΔΨm) [6]: intense effect | effect on mitochondrial membrane potential (ΔΨm) [7]: did not observe any change | effect on mitochondrial membrane potential (ΔΨm) (T. cruzi epimastigotes): did not observe any change | cytoplasmic membrane permeability (L. amazonensis): does not seem to be permeable | cytoplasmic membrane permeability (L. donovani): remarkable membrane alteration | cytoplasmic membrane permeability (T. cruzi): remarkable membrane alteration | morphological changes of parasites [8]: morphological changes | CC50 at 24 h [1]: 5.2 ± 1.75 µM | IC50 [2]: 1.58 ± 0.52 µM | Selectivity Index (CC50/IC50) [9]: 52 | IC50 [9]: 0.1 µM

CO[C@@H]1C(=O)C[C@H]2O[C@]1(C)n1c3ccccc3c3c4c(c5c6ccccc6n2c5c31)C(=O)NC4 [Compound 3, 4′-demethylamino-4′-oxostaurosporine]
IC50 ([4]; Leishmania amazonensis): 17.1 ± 4.78 µM | IC50 [5]: > 40 µM | CC50 at 24 h ([1]; J774A.1 macrophage cell line): > 40 µM | Macrophage J774A.1 CC50 [3]: low toxicity | IC50 [2]: 17.1 ± 1.64 µM | IC50 [9]: 2.03 ± 0.27 µM

COC1=C(C)O[C@@H]2C[C@@]1(OC)n1c3ccccc3c3c4c(c5c6ccccc6n2c5c31)C(=O)NC4 [Compound 4, streptocarbazole B]
IC50 ([4]; Leishmania amazonensis): 10.4 ± 0.21 µM | IC50 [5]: > 40 µM | CC50 at 24 h ([1]; J774A.1 macrophage cell line): > 40 µM | Macrophage J774A.1 CC50 [3]: low toxicity | IC50 [2]: 12.5 ± 2.06 µM | IC50 [9]: 2.47 ± 0.09 µM

CO[C@H]1[C@H](O)[C@@H](O)[C@H](n2c3c(Cl)cccc3c3c4c(c5c6cccc(Cl)c6[nH]c5c32)C(=O)NC4=O)O[C@@H]1CO [Compound 5, rebeccamycin]
IC50 ([4]; Leishmania amazonensis): > 40 µM | L. amazonensis IC50 [4]: completely inactive | L. donovani IC50 [5]: completely inactive | IC50 [5]: > 40 µM | inhibitory effect on PKC (protein kinase C (PKC)): no inhibitory effect | CC50 at 24 h ([1]; J774A.1 macrophage cell line): 1.42 ± 0.19 µM | IC50 [2]: > 40 µM | T. cruzi IC50 [2]: completely inactive

COC(=O)[C@@]1(O)C[C@H]2O[C@]1(C)n1c3ccccc3c3c4c(c5c6ccccc6n2c5c31)C(=O)NC4 [Compound 6, K252a]
IC50 ([4]; Leishmania amazonensis): 5.9 ± 0.96 µM | IC50 [5]: 8.09 ± 1.12 µM | IC50 (phosphorylase kinase): 0.0017 µM | IC50 (protein kinase A (PKA)): 0.14 µM | CC50 at 24 h [1]: 1.07 ± 0.21 µM | IC50 [2]: 4 ± 0.24 µM

C[C@]12O[C@H](C[C@]1(O)C(=O)O)n1c3ccccc3c3c4c(c5c6ccccc6n2c5c31)CNC4=O [Compound 7, K252b]
IC50 ([4]; Leishmania amazonensis): 20.6 ± 4.5 µM | IC50 [5]: 4.45 ± 0.71 µM | Macrophage J774A.1 CC50 [10]: low toxicity | CC50 at 24 h (in vitro): > 40 µM | IC50 [2]: 7.41 ± 0.93 µM

O=C1NCc2c1c1c3ccccc3[nH]c1c1[nH]c3ccccc3c21 [Compound 8, K252c]
IC50 ([4]; Leishmania amazonensis): > 40 µM | L. amazonensis IC50 [4]: completely inactive | L. donovani IC50 [5]: completely inactive | IC50 [5]: > 40 µM | CC50 at 24 h ([1]; J774A.1 macrophage cell line): 35.4 ± 2.47 µM | Macrophage J774A.1 CC50 [3]: low toxicity | IC50 [2]: > 40 µM | T. cruzi IC50 [2]: completely inactive

O=C1NC(=O)c2c1c1c3ccccc3[nH]c1c1[nH]c3ccccc3c21 [Compound 9, arcyriaflavin A]
IC50 ([4]; Leishmania amazonensis): > 40 µM | L. amazonensis IC50 [4]: completely inactive | L. donovani IC50 [5]: completely inactive | IC50 [5]: > 40 µM | Macrophage J774A.1 CC50 [10]: low toxicity | CC50 at 24 h (in vitro): > 40 µM | IC50 [2]: > 40 µM | T. cruzi IC50 [2]: completely inactive

CCCCCCCCCCCCCCCCOP(=O)([O-])OCC[N+](C)(C)C [Miltefosine]
IC50 [5]: 3.32 ± 0.27 µM | CC50 at 24 h ([1]; J774A.1 macrophage cell line): 72.2 ± 3.06 µM | Selectivity Index (CC50/IC50) [9]: 23
